In patent publication EP0021836A1, “Clavulanic acid derivatives, process for their preparation and pharmaceutical compositions containing them” (BEECHAM GROUP PLC, priority 1979, dated 1981):
“And” between values parts separate entries of the source, which are not always exact repeats. Equal entries are not always repeated.

How the values were obtained:
E.coli JT39 = assay: standard MIC test (synergistic and antibacterial properties); type: cell-based; details: substance alone, unit assumed
Kleb E70 = assay: as above; type: cell-based; details: substance alone; Kleb E70 (printed Kleb Eto in the 1st table); unit assumed
Staph Russell = assay: as above; type: cell-based; details: substance alone, in µg/mL (unit assumed)
E. coli strain E96 = assay: in-vivo subcutaneous synergistic activity with amoxycillin against intraperitoneal infection in mice; details: Escherichia coli, sc, amoxycillin alone, read-out: CD50 (the source's name)
E. coli strain E124 = assay: as above; details: Escherichia coli, sc, amoxycillin alone, read-out: CD50 (the source's name)

Structure (SMILES)	MIC (E.coli JT39) [µg/mL]	MIC (Kleb E70) [µg/mL]	MIC (Staph Russell)	ED50 (E. coli strain E96) [mg/kg]	ED50 (E. coli strain E124) [mg/kg]
CC1(C)S[C@@H]2[C@H](NC(=O)[C@H](N)c3ccc(O)cc3)C(=O)N2[C@H]1C(=O)O [Amoxycillin]				> 1000	> 1000
O=C(O)[C@H]1/C(=C/CO)O[C@@H]2CC(=O)N21 [Clavulanic acid]	16		16 and 31.2		
CC(C)NCC=C1OC2CC(=O)N2C1C(=O)O (stereo not shown) [Example 1, 9-N-Isopropylaminodeoxyclavulanic acid]	31.2	500	8		

The next lines start with results.

MIC (E.coli JT39) [µg/mL]	MIC (Kleb E70) [µg/mL]	MIC (Staph Russell)	Structure (SMILES)	ED50 (E. coli strain E96) [mg/kg]	ED50 (E. coli strain E124) [mg/kg]
31.2	> 500	16	O=C(O)C1C(=CCNC2CCCC2)OC2CC(=O)N21 (stereo not shown) [Example 2, 9-N-Cyclopentylaminodeoxyclavulanic acid]		
62.5	500	8.0	O=C(O)C1C(=CCNC2CCCCC2)OC2CC(=O)N21 (stereo not shown) [Example 3, 9-N-Cyclohexylaminodeoxyclavulanic acid]		
